According to ChEMBL document CHEMBL5357025, “Perceptual Modifying Compounds and Their Potential Therapeutic Applications in Neuropsychiatric Disorders” (ACS Med Chem Lett, 2024):

Key:
[1] = Metabolic stability in pooled human liver microsomes assessed as intrinsic clearance at 1 uM preincubated with compound followed by NADPH addition and measured upto 45 mins by LC-MS/MS analysis; type: ADME, Microsome; conditions: read-out: CLH
[2] = Metabolic stability in pooled human liver microsomes assessed as half-life at 1 uM preincubated with compound followed by NADPH addition and measured upto 45 mins by LC-MS/MS analysis; type: ADME, Microsome

| Structure (SMILES) | microsomal CLint at 1 µM [1] [µL/min/mg] | half-life at 1 µM [2] [min] |
| --- | --- | --- |
| [2H]c1[nH]c2cccc3c2c1C[C@@H]1C3=C[C@@H](C(=O)N(CC)CC)CN1C | 17.8 | 77.7 |
| [2H]C([2H])([2H])C([2H])([2H])N(C(=O)[C@@H]1C=C2c3cccc4[nH]cc(c34)C[C@H]2N(C)C1)C([2H])([2H])C([2H])([2H])[2H] | 17.2 | 80.8 |
| [2H]c1c([2H])c2c3c(c(Br)[nH]c3c1[2H])C[C@@H]1C2=C[C@@H](C(=O)N(CC)CC)CN1C | 52.6 | 26.3 |
| [2H]c1[nH]c2c([2H])c([2H])c([2H])c3c2c1C[C@@H]1C3=C[C@@H](C(=O)N(CC)CC)CN1C | 16.7 | 82.8 |
| [2H]C([2H])([2H])N1C[C@H](C(=O)N(CC)CC)C=C2c3cccc4[nH]c(Br)c(c34)C[C@H]21 | 49.4 | 28.1 |
| [2H]C([2H])([2H])C([2H])([2H])N(C(=O)[C@@H]1C=C2c3cccc4[nH]c(Br)c(c34)C[C@H]2N(C)C1)C([2H])([2H])C([2H])([2H])[2H] | 44.6 | 31.1 |
| CCN(CC)C(=O)[C@@H]1C=C2c3cccc4[nH]c(Br)c(c34)C[C@H]2N(C)C1 | 56.3 | 24.6 |
| [2H]C([2H])([2H])N1C[C@H](C(=O)N(C([2H])([2H])C([2H])([2H])[2H])C([2H])([2H])C([2H])([2H])[2H])C=C2c3cccc4[nH]c(Br)c(c34)C[C@H]21 | 38.8 | 35.7 |
